A short description of data set [1]: Elimination rate constant in CD1 mouse brain assessed as baloxavir acid level at 15 mg/kg, po administered as single dose measured up to 24 hrs by LC-MS/MS analysis. The conditions noted are these: in vivo. It counts as ADME, organism-based.
Data set [2] in a line: MRTlast in CD1 mouse heart assessed as baloxavir acid level at 15 mg/kg, po administered as single dose measured up to 24 hrs by LC-MS/MS analysis. The conditions noted are these: in vivo. It counts as ADME, organism-based.
Data set [3] can be described thus: Cmax in CD1 mouse lung assessed as baloxavir acid level at 15 mg/kg, po administered as single dose measured up to 24 hrs by LC-MS/MS analysis. It is filed as ADME, organism-based. Also on record: dose 15 mg/kg, route oral. The note with it: in vivo.
Data set [4] is described as follows: AUCinfinity in CD1 mouse blood assessed as baloxavir acid level at 15 mg/kg, po administered as single dose measured up to 24 hrs by LC-MS/MS analysis. It counts as ADME, organism-based. Also on record: dose 15 mg/kg, time infinity, route oral. The conditions noted are these: in vivo.
A short description of data set [5]: Cmax in CD1 mouse brain assessed as baloxavir acid level at 15 mg/kg, po administered as single dose measured up to 24 hrs by LC-MS/MS analysis. It is filed as ADME, organism-based. The conditions noted are these: in vivo. Also on record: dose 15 mg/kg, route oral.
The nature of data set [6]: Ratio of AUClast in CD1 mouse blood to plasma assessed as baloxavir acid level at 15 mg/kg, po administered as single dose measured up to 24 hrs by LC-MS/MS analysis. It counts as ADME, organism-based. The note with it: in vivo.
Data set [7] in a line: Tmax in CD1 mouse muscle assessed as baloxavir acid level at 15 mg/kg, po administered as single dose measured up to 24 hrs by LC-MS/MS analysis. It counts as ADME, organism-based, Muscle tissue. The note with it: in vivo.
A short description of data set [8]: Half life in CD1 mouse spleen assessed as (12aR)-12-(Diphenylmethyl)-7-hydroxy-3,4,12,12a-tetrahydro-1H-[1,4]oxazino[3,4-c]pyrido[2,1-f ][1,2,4]triazine-6,8-dione level at 15 mg/kg, po administered as single dose measured up to 24 hrs by LC-MS/MS analysis. The note with it: in vivo. It counts as ADME, organism-based.
Data set [9] can be described thus: Cmax in CD1 mouse brain assessed as (12aR)-12-(Diphenylmethyl)-7-hydroxy-3,4,12,12a-tetrahydro-1H-[1,4]oxazino[3,4-c]pyrido[2,1-f ][1,2,4]triazine-6,8-dione level at 15 mg/kg, po administered as single dose measured up to 24 hrs by LC-MS/MS analysis. It counts as ADME, organism-based. Also on record: dose 15 mg/kg, route oral. The note with it: in vivo.
Data set [10] in a line: Cmax in CD1 mouse lung assessed as (12aR)-12-(Diphenylmethyl)-7-hydroxy-3,4,12,12a-tetrahydro-1H-[1,4]oxazino[3,4-c]pyrido[2,1-f ][1,2,4]triazine-6,8-dione level at 15 mg/kg, po administered as single dose by LC-MS/MS analysis. It counts as ADME, organism-based. Further details: dose 15 mg/kg, route oral. The note with it: in vivo.
The nature of data set [11]: Cmax in CD1 mouse liver assessed as (12aR)-12-(Diphenylmethyl)-7-hydroxy-3,4,12,12a-tetrahydro-1H-[1,4]oxazino[3,4-c]pyrido[2,1-f ][1,2,4]triazine-6,8-dione level at 15 mg/kg, po administered as single dose measured up to 24 hrs by LC-MS/MS analysis. Further details: dose 15 mg/kg, route oral. It counts as ADME, organism-based. The conditions noted are these: in vivo.

Data set [12] is described as follows: Oral bioavailability in CD1 mouse assessed as (12aR)-12-(Diphenylmethyl)-7-hydroxy-3,4,12,12a-tetrahydro-1H-[1,4]oxazino[3,4-c]pyrido[2,1-f ][1,2,4]triazine-6,8-dione level at 15 mg/kg administered as single dose by LC-MS/MS analysis. It counts as ADME, organism-based. The conditions noted are these: in vivo.
Data set [13] can be described thus: Half life in CD1 mouse lung assessed as (12aR)-12-(Diphenylmethyl)-7-hydroxy-3,4,12,12a-tetrahydro-1H-[1,4]oxazino[3,4-c]pyrido[2,1-f ][1,2,4]triazine-6,8-dione level at 15 mg/kg, po administered as single dose measured up to 24 hrs by LC-MS/MS analysis. It counts as ADME, organism-based. The note with it: in vivo.
Data set [14] is described as follows: AUClast in CD1 mouse blood assessed as (12aR)-12-(Diphenylmethyl)-7-hydroxy-3,4,12,12a-tetrahydro-1H-[1,4]oxazino[3,4-c]pyrido[2,1-f ][1,2,4]triazine-6,8-dione level at 15 mg/kg, po administered as single dose measured up to 24 hrs by LC-MS/MS analysis. It counts as ADME, organism-based. The note with it: in vivo.
The nature of data set [15]: Ratio of AUClast in CD1 mouse spleen to plasma assessed as (12aR)-12-(Diphenylmethyl)-7-hydroxy-3,4,12,12a-tetrahydro-1H-[1,4]oxazino[3,4-c]pyrido[2,1-f ][1,2,4]triazine-6,8-dione level at 15 mg/kg, po administered as single dose measured up to 24 hrs by LC-MS/MS analysis. The conditions noted are these: other tissue. It is filed as ADME, organism-based.
Data set [16] can be described thus: Cmax in CD1 mouse heart assessed as (12aR)-12-(Diphenylmethyl)-7-hydroxy-3,4,12,12a-tetrahydro-1H-[1,4]oxazino[3,4-c]pyrido[2,1-f ][1,2,4]triazine-6,8-dione level at 15 mg/kg, po administered as single dose measured up to 24 hrs by LC-MS/MS analysis. The note with it: in vivo. It is filed as ADME, organism-based. Further details: dose 15 mg/kg, route oral.
Data set [17] in a line: MRTlast in CD1 mouse muscle assessed as (12aR)-12-(Diphenylmethyl)-7-hydroxy-3,4,12,12a-tetrahydro-1H-[1,4]oxazino[3,4-c]pyrido[2,1-f ][1,2,4]triazine-6,8-dione level at 15 mg/kg, po administered as single dose measured up to 24 hrs by LC-MS/MS analysis. It counts as ADME, organism-based, Muscle tissue. The note with it: in vivo.
Data set [18] is described as follows: MRTlast in CD1 mouse spleen assessed as (12aR)-12-(Diphenylmethyl)-7-hydroxy-3,4,12,12a-tetrahydro-1H-[1,4]oxazino[3,4-c]pyrido[2,1-f ][1,2,4]triazine-6,8-dione level at 15 mg/kg, po administered as single dose measured up to 24 hrs by LC-MS/MS analysis. It counts as ADME, organism-based. The conditions noted are these: in vivo.
The nature of data set [19]: Half life in CD1 mouse brain assessed as (12aR)-12-(Diphenylmethyl)-7-hydroxy-3,4,12,12a-tetrahydro-1H-[1,4]oxazino[3,4-c]pyrido[2,1-f ][1,2,4]triazine-6,8-dione level at 15 mg/kg, po administered as single dose measured up to 24 hrs by LC-MS/MS analysis. It counts as ADME, organism-based. The note with it: in vivo.
The nature of data set [20]: AUCinfinity in CD1 mouse brain assessed as (12aR)-12-(Diphenylmethyl)-7-hydroxy-3,4,12,12a-tetrahydro-1H-[1,4]oxazino[3,4-c]pyrido[2,1-f ][1,2,4]triazine-6,8-dione level at 15 mg/kg, po administered as single dose measured up to 24 hrs by LC-MS/MS analysis. The note with it: in vivo. Also on record: dose 15 mg/kg, time infinity, route oral. It counts as ADME, organism-based.

The nature of data set [21]: Half life in CD1 mouse blood assessed as (12aR)-12-(Diphenylmethyl)-7-hydroxy-3,4,12,12a-tetrahydro-1H-[1,4]oxazino[3,4-c]pyrido[2,1-f ][1,2,4]triazine-6,8-dione level at 15 mg/kg, po administered as single dose measured up to 24 hrs by LC-MS/MS analysis. The note with it: in vivo. It is filed as ADME, organism-based.
A short description of data set [22]: Ratio of AUClast in CD1 mouse small intestine to plasma assessed as (12aR)-12-(Diphenylmethyl)-7-hydroxy-3,4,12,12a-tetrahydro-1H-[1,4]oxazino[3,4-c]pyrido[2,1-f ][1,2,4]triazine-6,8-dione level at 15 mg/kg, po administered as single dose measured up to 24 hrs by LC-MS/MS analysis. It counts as ADME, organism-based. The note with it: other tissue.
Data set [23] in a line: AUClast in CD1 mouse lung assessed as (12aR)-12-(Diphenylmethyl)-7-hydroxy-3,4,12,12a-tetrahydro-1H-[1,4]oxazino[3,4-c]pyrido[2,1-f ][1,2,4]triazine-6,8-dione level at 15 mg/kg, po administered as single dose by LC-MS/MS analysis. It counts as ADME, organism-based. The conditions noted are these: in vivo.

Consider `COC(=O)OCOc1c2n(ccc1=O)N([C@@H]1c3ccccc3SCc3c1ccc(F)c3F)[C@@H]1COCCN1C2=O` [BALOXAVIR MARBOXIL], for which the Kel in data set [1] was determined as 0.06 h⁻¹. Also, in [2], the MRTlast came to 4.84 h. The results for the Cmax in data set [3] and in data set [5] were 1188 ng/g and 21.9 ng/g, respectively. Also, in [4], the AUC came out at 1390 ng·h/g. Moreover, the “Ratio AUC” value in data set [6] came to 3.05. The time of peak concentration (Tmax) in data set [7] was 2 h.
In the case of `COC(=O)OCOc1c2n(ccc1=O)N(C(c1ccccc1)c1ccccc1)[C@@H]1COCCN1C2=O`, the t1/2 worked out at 1.77 h in data set [8], 1.57 h in [13], 8.18 h in [19] and 1.74 h in data set [21]. The Cmax in data set [9] was 98 ng/g; in data set [10], 1882 ng/g; in data set [11] it was 12775 ng/g; in data set [16] it was 2537 ng/g. Besides, the F in data set [12] was 62.1%. Moreover, the results for the AUClast in data set [14] and in data set [23] were 2746 ng·h/g and 11923 ng·h/g, respectively. Further, the figures for the “Ratio AUC” value in [15] and in data set [22] were 1.38 and 13.3, respectively. The MRTlast in data set [17] was determined as 1.86 h; in data set [18], 1.89 h. Moreover, the AUC in data set [20] amounted to 1238 ng·h/g.

These data come from ChEMBL document CHEMBL4622979, “Non-rigid Diarylmethyl Analogs of Baloxavir as Cap-Dependent Endonuclease Inhibitors of Influenza Viruses” (J Med Chem, 2020).
